US4596804A, “Dibenz[b,e]oxepin compounds” (Kyowa Hakko Kogyo Co., Ltd., priority 1983, dated 1986)
Structures can show the parent of a compound that is named as a salt.

Experiments:
[1] = tested on: male dd strain mice; test: Acute toxicity (minimum lethal dose); format: in vivo; settings: mortality seven days after administration; for Acute Toxicity (MLD) ip: intraperitoneal
Procedure: The present compound was administered orally (p.o. 300 mg/kg) or intraperitoneally (i.p. 100 mg/kg) to several groups of male dd strain mice weighing 19 to 21 g (each group consisting of three mice), and MLD (minimum lethal dose) was determined by observing the mortality seven days after administration.

[2] = tested on: passive cutaneous anaphylaxis (PCA) reaction; test: 48-hour homologous PCA (passive cutaneous anaphylaxis) test in rats, antiallergic activity; format: in vivo, male Wistar strain rats; settings: minimum dose with at least one positive among three rats; for minimal effective dose: Rattus norvegicus, po, read-out: Antiallergic Activity, MED (minimum effective dose); for Antiallergic Activity, MED (minimum effective dose): oral
Procedure: The 48-hour homologous PCA (passive cutaneous anaphylaxis) test was employed. As test animals, male Wistar strain rats weighing 180 to 220 g were used for preparation of antiserum and those weighing 120 to 140 g for PCA test.
(A) Preparation of rat antiserum to EWA
Rat antiserum to egg white albumin (EWA) was prepared by the method of Stotland Share [Canad. J. Physiol. Pharmacol. 52, 1114 (1974)] as follows. One mg of EWA was mixed with 20 mg of aluminum hydroxide gel and 0.5 ml of pertussis/diphtheria/tetanus mixed vaccine, and the mixture was subcutaneously injected to each rat through the sole in four portions. After 14 days, blood samples were taken from the carotid artery, and the serum was separated and stored at -80° C. The 48-hour homologous PCA titer of this antiserum was 1:32.
(B) 48-hour homologous PCA test in rats
Three rats for each group were employed for 48-hour homologous PCA test. Rats were passively sensitized by injecting intradermally at the two spots on the shaved back 0.05 ml portions of the antiserum which was diluted 8-fold with physiological saline. After 47 hours, test compounds or the solutions thereof (physiological saline solution or CMC solution) were orally administered to the rats, and after one hour, the animals were injected intraveneously to tail vein 0.5 ml/100 g body weight of saline containing 2 mg of EWA, together with 1% Evans blue. Thirty minutes after antigen challenge, the rats were sacrificed by exanguination, and the skin was cut out, followed by the evaluation of the intensity of PCA reaction by expressing the amounts of dye leaked. The amounts of dye leaked from the blue-stained section were measured by the metod of Katayama, et al [Microbiol. Immunol. 22, 89 (1978)] as follows. A portion of the blue-stained section cut out with scissors was placed in a test tube containing 1 ml of 1N KOH solution, and incubated at 37° C. for 24 hours. 9 ml of a mixture of 0.6N phosphoric acid and acetone (5:13) was added, and the mixture was shaken and subjected to centrifugation at 2500 rpm for 10 minutes. Then, the absorbance of the supernatant liquid at 620 mμ was measured, and the amount of eluted dye was determined by using a calibration curve previously prepared. The average of the measurements for the two positions was taken as the value for each individual, and the inhibition rate for each rat was calculated from the following formula: [formula]
PCA inhibiting activity was evaluated as positive when the inhibition rate was 50% or higher, and the minimum dose required to achieve positive result for at least one among the three rats in each group was taken as the minimum effective dose (MED).

Row | Compound | Acute Toxicity (MLD) ip [1] [mg/kg] | Acute Toxicity (MLD) PO [1] [mg/kg] | minimal effective dose [2] [mg/kg] | Antiallergic Activity, MED (minimum effective dose) [2] [mg/kg]
1 | CN1CCN(C2c3ccccc3COc3ccc(C(=O)O)cc32)CC1 (stereo not drawn) [Compound 3, 11-(4-Methylpiperazino)-6,11-dihydrodibenz[b,e]oxepin-2-carboxylic acid diacetate.2H2 O] | > 100 | > 300 | 1 | 
2 | CN1CCN(C2c3ccccc3COc3ccc(C(N)=O)cc32)CC1 (stereo not drawn) [Compound 4, 11-(4-Methylpiperazino)-6,11-dihydrodibenz[b,e]oxepin-2-carboamide] | > 100 | > 300 | 10 | 
3 | CN1CCN(C2c3ccccc3COc3ccc(-c4nnn[nH]4)cc32)CC1 (stereo not drawn) [Compound 6, 11-(4-Methylpiperazino)-2-(5-tetrazolyl)-6,11-dihydrodibenz[b,e]oxepin Na salt] | > 100 | > 300 | 10 | 
4 | CCOC(=O)c1ccc2c(c1)C(SCCN(C)C)c1ccccc1CO2 (stereo not drawn) [Compound 7, 11-(N,N--dimethylaminoethyl)thio-6,11-dihydrodibenz[b,e]oxepin-2-carboxylic acid ethyl ester] | > 100 | > 300 | 10 | 
5 | CN(C)CCSC1c2ccccc2COc2ccc(C(=O)O)cc21 (stereo not drawn) [Compound 8, 11-(N,N--dimethylaminoethyl)thio-6,11-dihydrodibenz[b,e]oxepin-2-carboxylic acid acetate] | > 100 | > 300 |  | 10
6 | CN(C)CCSC1c2ccccc2COc2ccc(C#N)cc21 (stereo not drawn) [Compound 10, 11-(N,N--dimethylaminoethyl)thio-6,11-dihydrodibenz[b,e]oxepin-2-carbonitrile] | > 100 | > 300 | 1 | 
7 | CCOC(=O)c1ccc2c(c1)C(OCCN(C)C)c1ccccc1CO2 (stereo not drawn) [Compound 11, 11-(N,N--dimethylaminoethyl)oxy-6,11-dihydrodibenz[b,e]oxepin-2-carboxylic acid ethyl ester] | > 100 | > 300 | 1 | 
8 | CN(C)CCNC1c2ccccc2COc2ccc(C(N)=O)cc21 (stereo not drawn) [Compound 14, 11-(N,N--dimethylaminoethyl)amino-6,11-dihydrodibenz[b,e]oxepin-2-carboamide] | > 100 | 300 | 1 | 
9 | CCOC(=O)c1ccc2c(c1)C(NC1CN3CCC1CC3)c1ccccc1CO2 (stereo not drawn) [Compound 17, 11-(3-Quinuclidinyl)amino-6,11-dihydrodibenz[b,e]oxepin-2-carboxylic acid ethyl ester] | > 100 | > 300 | 0.1 | 
10 | CCOC(=O)OC(C)OC(=O)c1ccc2c(c1)C(N1CCN(C)CC1)c1ccccc1CO2 (stereo not drawn) [Compound 19, 11-(4-Methylpiperazino)-6,11-dihydrodibenz[b,e]oxepin-2-carboxylic acid (1-ethoxycarbonyloxy)ethyl ester] | > 100 | > 300 | 1 | 
11 | CCOC(=O)OC(C)OC(=O)c1ccc2c(c1)C(SCCN(C)C)c1ccccc1CO2 (stereo not drawn) [Compound 20, 11-(N,N--dimethylaminoethyl)thio-6,11-dihydrodibenz[b,e]oxepin-2-carboxylic acid (1-ethoxycarbonyloxy)ethyl ester] | > 100 | > 300 | 0.1 | 
12 | CN1CCN(C2c3ccccc3COc3ccc(C(=O)O)cc32)CC1 (stereo not drawn) [Compound 21, 11-(4-Methylpiperazino)-6,11-dihydrodibenz[b,e]oxepin-2-carboxylic acid dihydrochloride.1/4H2 O] | > 100 | > 300 |  | 1
13 | CN(C)CCSC1c2ccccc2COc2ccc(C(=O)O)cc21 (stereo not drawn) [Compound 22, 11-(N,N--dimethylaminoethyl)thio-6,11-dihydrodibenz[b,e]oxepin-2-carboxylic acid hydrochloride.1/2H2 O] | > 100 | > 300 |  | 0.1
